Test results taken from patent US20250145633A1, “SUBSTITUTED FURANOPYRIMIDINE COMPOUNDS AS PDE1 INHIBITORS” (Dart NeuroScience, LLC, priority 2017, published 2025).

Target: human PDE1B enzyme (Homo sapiens (Human), UniProt Q01064)
Test: IMAP TR-FRET PDE1B enzymatic assay
Assay type: biochemical
Details: negative log of half-maximal molar inhibitory concentration, 200 nM FAM-cAMP, values given as bins; for IC50: read-out: PDE1b (pIC50) (converted)
Procedure: PDE1B inhibition was determined by an IMAP TR-FRET assay. The IMAP TR-FRET PDE assay was optimized for concentration of enzyme, Calmodulin, cAMP or cGMP substrate, DMSO tolerance, and incubation time.
Into each well of a solid white 1536 well plate (Corning) was dispensed 250 pg full-length recombinant NH-terminal GST tagged human PDE1B enzyme (BPS Bioscience Cat #60011, San Diego, CA) in 2.5 μL IMAP BSA reaction buffer (Molecular Devices, Sunnyvale, CA) containing 10 U/ml Calmodulin and 2.5 mM CaCl2) (Sigma Aldrich.) After a brief centrifugation, 30 nL of compound was added by transfer from 1 mM stock in DMSO using a Kalypsys 1536 Pintool. Plates were incubated for 5 minutes at room temperature before dispensing 1.5 μL of 533 nM 5-carboxy fluorescein (FAM)-labeled cAMP (Molecular Devices, Sunnyvale, CA) for a final concentration of 200 nM. After a brief centrifugation, the plates were incubated for 30 minutes at room temperature. The assay was terminated by adding 5 μL IMAP binding reagent/Tb complex (Molecular Devices, Sunnyvale, CA) to each well.
Plates were incubated for 1 hour at room temperature and were read on a Viewlux multimode plate reader (Perkin Elmer). The instrument was set to excite using the DUG11 filter and measure using 490/10 nm and 520/10 nm filters. Ratios of acceptor and donor were then calculated.
For IC50 calculations, the values of % efficacy versus a series of compound concentrations were then plotted using non-linear regression analysis of sigmoidal dose-response curves generated with the equation Y=[B+(T−B)]/[1+10((Log EC50−X)×Hill Slope)], where Y=percent activity, B=minimum percent efficacy, T=maximum percent efficacy, X=logarithm of compound and Hill Slope=slope factor or Hill coefficient. The IC50 value was determined by the concentration causing a half-maximal percent efficacy.

| SMILES | IC50 [nM] | PDE1b (pIC50) |
| --- | --- | --- |
| Cc1oc2ncnc(NC3(C)CC3)c2c1C(=O)Nc1ccc(-c2ccoc2)nc1 [Example 34, N-[6-(Furan-3-yl)pyridin-3-yl]-6-methyl-4-[(1-methylcyclopropyl)amino]furo[2,3-d]pyrimidine-5-carboxamide] | 10 to 100 |  |
| Cc1oc2ncnc(NC3(C)CC3)c2c1C(=O)N1CCN(c2nccs2)CC1 [Example 35, 6-Methyl-N-(1-methylcyclopropyl)-5-[4-(1,3-thiazol-2-yl)piperazine-1-carbonyl]furo[2,3-d]pyrimidin-4-amine] | 10 to 100 |  |
| Cc1oc2ncnc(NC3(C)CC3)c2c1C(=O)N1Cc2cnc(C(F)(F)F)nc2C1 [Example 36, 6-Methyl-N-(1-methylcyclopropyl)-5-[2-(trifluoromethyl)-5H,6H,7H-pyrrolo[3,4-d]pyrimidine-6-carbonyl]furo[2,3-d]pyrimidin-4-amine] | 100 to 1000 |  |
| Cc1oc2ncnc(NC3(C)CC3)c2c1C(=O)N1Cc2cnc(-c3ccc(F)cc3)nc2C1 [Example 37, 5-[2-(4-Fluorophenyl)-5H,6H,7H-pyrrolo[3,4-d]pyrimidine-6-carbonyl]-6-methyl-N-(1-methylcyclopropyl)furo[2,3-d]pyrimidin-4-amine] | 100 to 1000 |  |
| Cc1oc2ncnc(NC3(C)CC3)c2c1C(=O)N1CC(c2ncc(C(F)(F)F)cc2F)C1 [Example 38, 5-{3-[3-Fluoro-5-(trifluoromethyl)pyridin-2-yl]azetidine-1-carbonyl}-6-methyl-N-(1-methylcyclopropyl)furo[2,3-d]pyrimidin-4-amine] | 10 to 100 |  |
| Cc1ncc2c(n1)CCN(C(=O)c1c(C)oc3ncnc(NC4(C)CC4)c13)C2 [Example 39, 6-Methyl-5-f{2-methyl-5H,6H,7H,8H-pyrido[4,3-d]pyrimidine-6-carbonyl}-N-(1-methylcyclopropyl)furo[2,3-d]pyrimidin-4-amine] | 10 to 100 |  |
| COc1nccc2c1CCN(C(=O)c1c(C)oc3ncnc(NC4(C)CC4)c13)C2 [Example 40, 5-(5-Methoxy-1,2,3,4-tetrahydro-2,6-naphthyridine-2-carbonyl)-6-methyl-N-(1-methylcyclopropyl)furo[2,3-d]pyrimidin-4-amine] | 10 to 100 |  |
| Cc1oc2ncnc(NC3(C)CC3)c2c1C(=O)N1CCc2nc(C(C)(C)C)ncc2C1 [Example 41, 5-{2-tert-Butyl-5H,6H,7H,8H-pyrido[4,3-d]pyrimidine-6-carbonyl}-6-methyl-N-(1-methylcyclopropyl)furo[2,3-d]pyrimidin-4-amine] |  | >8 |
| Cc1oc2ncnc(NC3(C)CC3)c2c1C(=O)N1CCN(c2ccccn2)CC1 [Example 42, 6-Methyl-N-(1-methylcyclopropyl)-5-[4-(pyridin-2-yl)piperazine-1-carbonyl]furo[2,3-d]pyrimidin-4-amine] |  | >8 |
| Cc1oc2ncnc(NC3(C)CC3)c2c1C(=O)N1CCN(c2ccc(F)cn2)CC1 [Example 43, 5-[4-(5-Fluoropyridin-2-yl)piperazine-1-carbonyl]-6-methyl-N-(1-methylcyclopropyl)furo[2,3-d]pyrimidin-4-amine] |  | >8 |
| Cc1ccc(N2CCN(C(=O)c3c(C)oc4ncnc(NC5(C)CC5)c34)CC2)nc1 [Example 44, 6-Methyl-N-(1-methylcyclopropyl)-5-[4-(5-methylpyridin-2-yl)piperazine-1-carbonyl]furo[2,3-d]pyrimidin-4-amine] |  | >8 |
| COc1ncc2c(n1)CCN(C(=O)c1c(C)oc3ncnc(NC4(C)CC4)c13)C2 [Example 45, 5-{2-Methoxy-5H,6H,7H,8H-pyrido[4,3-d]pyrimidine-6-carbonyl}-6-methyl-N-(1-methylcyclopropyl)furo[2,3-d]pyrimidin-4-amine] | 10 to 100 |  |
| Cc1oc2ncnc(NC3(C)CC3)c2c1C(=O)Nc1ccc(N2CCOCC2)cn1 [Example 46, 6-Methyl-4-[(1-methylcyclopropyl)amino]-N-[5-(morpholin-4-yl)pyridin-2-yl]furo[2,3-d]pyrimidine-5-carboxamide] | 100 to 1000 |  |
| Cc1oc2ncnc(NC3(C)CC3)c2c1C(=O)N1CCN(c2ccc(C#N)cc2)CC1 [Example 47, 4-(4-{6-Methyl-4-[(1-methylcyclopropyl)amino]furo[2,3-d]pyrimidine-5-carbonyl}piperazin-1-yl)benzonitrile] |  | >8 |
| Cc1oc2ncnc(NC3(C)CC3)c2c1C(=O)NCc1ccc(F)cc1 [Example 48, N-[(4-Fluorophenyl)methyl]-6-methyl-4-[(1-methylcyclopropyl)amino]furo[2,3-d]pyrimidine-5-carboxamide] | 10 to 100 |  |
| Cc1oc2ncnc(NC3(C)CC3)c2c1C(=O)NCc1ccc(F)cn1 [Example 49, N-[(5-Fluoropyridin-2-yl)methyl]-6-methyl-4-[(1-methylcyclopropyl)amino]furo[2,3-d]pyrimidine-5-carboxamide] | 10 to 100 |  |
| Cc1oc2ncnc(NC3(C)CC3)c2c1C(=O)NCCc1ccc(F)cc1 [Example 50, N-[2-(4-Fluorophenyl)ethyl]-6-methyl-4-[(1-methylcyclopropyl)amino]furo[2,3-d]pyrimidine-5-carboxamide] | 10 to 100 |  |
| Cc1oc2ncnc(NC3(C)CC3)c2c1C(=O)NC(C)c1ccc(F)cn1 (stereo not drawn) [Example 51, N-[1-(5-Fluoropyridin-2-yl)ethyl]-6-methyl-4-[(1-methylcyclopropyl)amino]furo[2,3-d]pyrimidine-5-carboxamide] |  | >8 |
| Cc1oc2ncnc(NC3(C)CC3)c2c1C(=O)NCc1ccc(C#N)cc1 [Example 52, N-[(4-Cyanophenyl)methyl]-6-methyl-4-[(1-methylcyclopropyl)amino]furo[2,3-d]pyrimidine-5-carboxamide] | 10 to 100 |  |
| COc1cccc(CNC(=O)c2c(C)oc3ncnc(NC4(C)CC4)c23)n1 [Example 53, N-[(6-Methoxypyridin-2-yl)methyl]-6-methyl-4-[(1-methylcyclopropyl)amino]furo[2,3-d]pyrimidine-5-carboxamide] | 10 to 100 |  |
| COc1ccc(CNC(=O)c2c(C)oc3ncnc(NC4(C)CC4)c23)cn1 [Example 54, N-[(6-Methoxypyridin-3-yl)methyl]-6-methyl-4-[(1-methylcyclopropyl)amino]furo[2,3-d]pyrimidine-5-carboxamide] |  | >8 |
| COc1ccc(CNC(=O)c2c(C)oc3ncnc(NC4(C)CC4)c23)nc1 [Example 55, N-[(5-Methoxypyridin-2-yl)methyl]-6-methyl-4-[(1-methylcyclopropyl)amino]furo[2,3-d]pyrimidine-5-carboxamide] |  | >8 |
| Cc1oc2ncnc(NC3(C)CC3)c2c1C(=O)N1CC(c2ccc(F)cc2)C1 [Example 56, 5-[3-(4-Fluorophenyl)azetidine-1-carbonyl]-6-methyl-N-(1-methylcyclopropyl)furo[2,3-d]pyrimidin-4-amine] |  | >8 |
| Cc1oc2ncnc(NC3(C)CC3)c2c1C(=O)N1CCC(c2ccc(F)cc2)C1 (stereo not drawn) [Example 57, 5-[3-(4-Fluorophenyl)pyrrolidine-1-carbonyl]-6-methyl-N-(1-methylcyclopropyl)furo[2,3-d]pyrimidin-4-amine] |  | >8 |
| Cc1oc2ncnc(NC3(C)CC3)c2c1C(=O)N1CCc2cc(C#N)ccc2C1 [Example 58, 2-{6-Methyl-4-[(1-methylcyclopropyl)amino]furo[2,3-d]pyrimidine-5-carbonyl}-1,2,3,4-tetrahydroisoquinoline-6-carbonitrile] | 10 to 100 |  |
| Cc1oc2ncnc(NC3(C)CC3)c2c1C(=O)NCc1ccc(OC(F)F)cn1 [Example 59, N-{[5-(Difluoromethoxy)pyridin-2-yl]methyl}-6-methyl-4-[(1-methylcyclopropyl)amino]furo[2,3-d]pyrimidine-5-carboxamide] |  | >8 |
| Cc1oc2ncnc(NC3(C)CC3)c2c1C(=O)N1CCC(c2ccc(F)cc2)CC1 [Example 60, 5-[4-(4-Fluorophenyl)piperidine-1-carbonyl]-6-methyl-N-(1-methylcyclopropyl)furo[2,3-d]pyrimidin-4-amine] |  | >8 |
| Cc1oc2ncnc(NC3(C)CC3)c2c1C(=O)N1CCN(c2ccc(F)cc2)CC1 [Example 61, 5-[4-(4-Fluorophenyl)piperazine-1-carbonyl]-6-methyl-N-(1-methylcyclopropyl)furo[2,3-d]pyrimidin-4-amine] |  | >8 |
| Cc1oc2ncnc(NC3(C)CC3)c2c1C(=O)N1CCC(F)(c2ccccn2)CC1 [Example 62, 5-[4-Fluoro-4-(pyridin-2-yl)piperidine-1-carbonyl]-6-methyl-N-(1-methylcyclopropyl)furo[2,3-d]pyrimidin-4-amine] |  | >8 |
| Cc1oc2ncnc(NC3(C)CC3)c2c1C(=O)N1CCC(O)(c2ccc(F)cc2)CC1 [Example 63, 4-(4-Fluorophenyl)-1-{6-methyl-4-[(1-methylcyclopropyl)amino]furo[2,3-d]pyrimidine-5-carbonyl}piperidin-4-ol] |  | >8 |
